Tested on: 186277-243-T-J2-PDC complex spheroid viability
Test: Anticancer human tumor 186277-243-T-J2-PDC patient-derived colon adenocarcinoma cell line growth inhibition [POLQ]
Conditions: for IC50: curve of first compound; for viability, T/C: stronger effect = lower value
How it was run: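 PDC + HUVEC + MSC complex spheroids; POLQ inhibitors ± partner drugs; top conc. at/near clinical Cmax, else 10 microM (SN-38 1 microM), half-log dilutions; 37 degrees C, 5% CO2.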

[1] = second compound 0.0316 µM, first compound 0.0316 µM
[2] = second compound 0.0316 µM, first compound 0.1 µM
[3] = second compound 0.0316 µM, first compound 0.316 µM
[4] = second compound 0.0316 µM, first compound 1 µM
[5] = second compound 0.0316 µM, first compound 3.16 µM
[6] = second compound 0.0316 µM, first compound 10 µM
[7] = second compound 0.1 µM, first compound 0.0316 µM
[8] = second compound 0.1 µM, first compound 0.1 µM
[9] = second compound 0.1 µM, first compound 0.316 µM
[10] = second compound 0.1 µM, first compound 1 µM
[11] = second compound 0.1 µM, first compound 3.16 µM
[12] = second compound 0.1 µM, first compound 10 µM
[13] = second compound 0.316 µM, first compound 0.0316 µM
[14] = second compound 0.316 µM, first compound 0.1 µM
[15] = second compound 0.316 µM, first compound 0.316 µM
[16] = second compound 0.316 µM, first compound 1 µM
[17] = second compound 0.316 µM, first compound 3.16 µM
[18] = second compound 0.316 µM, first compound 10 µM
[19] = second compound 1 µM, first compound 0.0316 µM
[20] = second compound 1 µM, first compound 0.1 µM
[21] = second compound 1 µM, first compound 0.316 µM
[22] = second compound 1 µM, first compound 1 µM
[23] = second compound 1 µM, first compound 3.16 µM
[24] = second compound 1 µM, first compound 10 µM
[25] = second compound 3.16 µM, first compound 0.0316 µM
[26] = second compound 3.16 µM, first compound 0.1 µM
[27] = second compound 3.16 µM, first compound 0.316 µM
[28] = second compound 3.16 µM, first compound 1 µM
[29] = second compound 3.16 µM, first compound 3.16 µM
[30] = second compound 3.16 µM, first compound 10 µM
[31] = second compound 10 µM, first compound 0.0316 µM
[32] = second compound 10 µM, first compound 0.1 µM
[33] = second compound 10 µM, first compound 0.316 µM
[34] = second compound 10 µM, first compound 1 µM
[35] = second compound 10 µM, first compound 3.16 µM
[36] = second compound 10 µM, first compound 10 µM
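Further: spheroids exposed to compounds for seven days.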
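Wherever viability, T/C is given: 100% = DMSO vehicle control viability.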

COc1cccc2c1C(=O)c1c(O)c3c(c(O)c1C2=O)CC(O)(C(=O)CO)CC3OC1CC(N)C(O)C(C)O1 (stereo not drawn) + COC1C(OC(N)=O)C(O)C(Oc2ccc3c(O)c(NC(=O)c4ccc(O)c(CC=C(C)C)c4)c(=O)oc3c2C)OC1(C)C
IC50 (second compound 0.0316 µM): 77.7 nM | IC50 (second compound 0.1 µM): 88.7 nM | IC50 (second compound 0.316 µM): 91.6 nM | IC50 (second compound 1 µM): 92.4 nM | IC50 (second compound 3.16 µM): 92.1 nM | IC50 (second compound 10 µM): 86.4 nM | viability, T/C [1]: 89.2% | viability, T/C [2]: 38.9% | viability, T/C [3]: 9.13% | viability, T/C [4]: 0.32% | viability, T/C [5]: 0.18% | viability, T/C [6]: 0.46% | viability, T/C [7]: 94.1% | viability, T/C [8]: 44.9% | viability, T/C [9]: 8.43% | viability, T/C [10]: 0.24% | viability, T/C [11]: 0.13% | viability, T/C [12]: 0.51% | viability, T/C [13]: 90.7% | viability, T/C [14]: 46.6% | viability, T/C [15]: 9.28% | viability, T/C [16]: 0.18% | viability, T/C [17]: 0.13% | viability, T/C [18]: 0.36% | viability, T/C [19]: 92.1% | viability, T/C [20]: 46.9% | viability, T/C [21]: 9.15% | viability, T/C [22]: 0.2% | viability, T/C [23]: 0.16% | viability, T/C [24]: 0.36% | viability, T/C [25]: 88.9% | viability, T/C [26]: 47% | viability, T/C [27]: 8.15% | viability, T/C [28]: 0.24% | viability, T/C [29]: 0.2% | viability, T/C [30]: 0.37% | viability, T/C [31]: 95.8% | viability, T/C [32]: 43.3% | viability, T/C [33]: 8.67% | viability, T/C [34]: 0.31% | viability, T/C [35]: 0.31% | viability, T/C [36]: 0.68%

Nc1ccn(C2OC(CO)C(O)C2(F)F)c(=O)n1 (stereo not drawn) + COC1C(OC(N)=O)C(O)C(Oc2ccc3c(O)c(NC(=O)c4ccc(O)c(CC=C(C)C)c4)c(=O)oc3c2C)OC1(C)C
IC50 (second compound 0.0316 µM): < 31.6 nM | IC50 (second compound 0.1 µM): < 31.6 nM | IC50 (second compound 0.316 µM): < 31.6 nM | IC50 (second compound 1 µM): < 31.6 nM | IC50 (second compound 3.16 µM): < 31.6 nM | IC50 (second compound 10 µM): < 31.6 nM | viability, T/C [1]: 7.44% | viability, T/C [2]: 5.74% | viability, T/C [3]: 6.22% | viability, T/C [4]: 6.52% | viability, T/C [5]: 5.93% | viability, T/C [6]: 5.3% | viability, T/C [7]: 7.07% | viability, T/C [8]: 5.49% | viability, T/C [9]: 6.25% | viability, T/C [10]: 6.16% | viability, T/C [11]: 7.16% | viability, T/C [12]: 5.7% | viability, T/C [13]: 6.61% | viability, T/C [14]: 5.95% | viability, T/C [15]: 6.28% | viability, T/C [16]: 6.18% | viability, T/C [17]: 6.62% | viability, T/C [18]: 5.63% | viability, T/C [19]: 6.65% | viability, T/C [20]: 5.29% | viability, T/C [21]: 5.98% | viability, T/C [22]: 6.8% | viability, T/C [23]: 6.08% | viability, T/C [24]: 5.74% | viability, T/C [25]: 5.98% | viability, T/C [26]: 5.52% | viability, T/C [27]: 5.91% | viability, T/C [28]: 5.81% | viability, T/C [29]: 7.8% | viability, T/C [30]: 5.79% | viability, T/C [31]: 6.27% | viability, T/C [32]: 5.86% | viability, T/C [33]: 6.51% | viability, T/C [34]: 6.65% | viability, T/C [35]: 7.8% | viability, T/C [36]: 5.54%

Nc1ccn(C2OC(CO)C(O)C2(F)F)c(=O)n1 (stereo not drawn) + Cc1cccc(N(C)C(=O)C2C(O)CCN2c2nc(C)cc(C(F)(F)F)c2C#N)c1
IC50 (second compound 0.0316 µM): < 31.6 nM | IC50 (second compound 0.1 µM): < 31.6 nM | IC50 (second compound 0.316 µM): < 31.6 nM | IC50 (second compound 1 µM): < 31.6 nM | IC50 (second compound 3.16 µM): < 31.6 nM | IC50 (second compound 10 µM): < 31.6 nM | viability, T/C [1]: 7.07% | viability, T/C [2]: 6.17% | viability, T/C [3]: 6.28% | viability, T/C [4]: 7.91% | viability, T/C [5]: 7.05% | viability, T/C [6]: 6.44% | viability, T/C [7]: 7.12% | viability, T/C [8]: 6.99% | viability, T/C [9]: 7.56% | viability, T/C [10]: 8.01% | viability, T/C [11]: 7.17% | viability, T/C [12]: 6.37% | viability, T/C [13]: 7.95% | viability, T/C [14]: 7.37% | viability, T/C [15]: 7% | viability, T/C [16]: 7.74% | viability, T/C [17]: 7.97% | viability, T/C [18]: 5.75% | viability, T/C [19]: 8.61% | viability, T/C [20]: 6.36% | viability, T/C [21]: 7.13% | viability, T/C [22]: 7.45% | viability, T/C [23]: 8.07% | viability, T/C [24]: 6.24% | viability, T/C [25]: 6.68% | viability, T/C [26]: 6.49% | viability, T/C [27]: 6.57% | viability, T/C [28]: 7.84% | viability, T/C [29]: 7.96% | viability, T/C [30]: 6.36% | viability, T/C [31]: 6.88% | viability, T/C [32]: 5.82% | viability, T/C [33]: 5.86% | viability, T/C [34]: 6.97% | viability, T/C [35]: 6.86% | viability, T/C [36]: 5.93%

CNCc1ccc(-c2[nH]c3cc(F)cc4c3c2CCNC4=O)cc1 + Cc1cccc(N(C)C(=O)C2C(O)CCN2c2nc(C)cc(C(F)(F)F)c2C#N)c1
IC50 (second compound 0.0316 µM): > 10000 nM | IC50 (second compound 0.1 µM): > 10000 nM | IC50 (second compound 0.316 µM): > 10000 nM | IC50 (second compound 1 µM): > 10000 nM | IC50 (second compound 3.16 µM): > 10000 nM | IC50 (second compound 10 µM): > 10000 nM | viability, T/C [1]: 105% | viability, T/C [2]: 97.5% | viability, T/C [3]: 104% | viability, T/C [4]: 102% | viability, T/C [5]: 102% | viability, T/C [6]: 97.5% | viability, T/C [7]: 81.2% | viability, T/C [8]: 98.9% | viability, T/C [9]: 107% | viability, T/C [10]: 108% | viability, T/C [11]: 115% | viability, T/C [12]: 91.1% | viability, T/C [13]: 103% | viability, T/C [14]: 109% | viability, T/C [15]: 94.8% | viability, T/C [16]: 105% | viability, T/C [17]: 93.8% | viability, T/C [18]: 91.7% | viability, T/C [19]: 102% | viability, T/C [20]: 105% | viability, T/C [21]: 95.2% | viability, T/C [22]: 95% | viability, T/C [23]: 105% | viability, T/C [24]: 76.9% | viability, T/C [25]: 100% | viability, T/C [26]: 108% | viability, T/C [27]: 107% | viability, T/C [28]: 105% | viability, T/C [29]: 115% | viability, T/C [30]: 78.4% | viability, T/C [31]: 106% | viability, T/C [32]: 98.4% | viability, T/C [33]: 107% | viability, T/C [34]: 90.1% | viability, T/C [35]: 94.2% | viability, T/C [36]: 69.4%
